Each structure is given as a SMILES string.

One series has as its system Staphylococcus aureus. The series can be described thus: Growth of Staphylococcus aureus treated with drug-carrying peptide-displaying phages. The series is classed as cell-based. Conditions: free drug at concentration equivalent to that released by the phages. The text has this: FIG. 11. The effect of drug-carrying peptide-displaying phages on the growth of Staphylococcus aureus. (A) Growth curves of SA cells treated with SA-specific chloramphenicol prodrug-conjugated phage A12C (triangles), chloramphenicol prodrug-conjugated irrelevant phage F2b (circles), non conjugated SA-specific phage A12C as negative control (squares). (B) Growth curves of SA cells treated with SA-specific chloramphenicol prodrug-conjugated phage A12C (triangles) or various concentration of free chloramphenicol: 0.533 μg/ml (large filled circles), 1.0625 μg/ml (small open circles), 2.125 μg/ml (large open circles) or cells grown without any growth inhibitor (filled squares). Error bars represent the standard deviation of the data.
Phage A12C was chosen to assess the targeting effect of chloramphenicol-conjugated S. aureus-specific peptide-displaying phages. Conjugates were evaluated for their effect on bacterial growth as follows: an overnight bacterial culture was diluted ×100 in PBS. 1 ml of diluted bacteria was collected by centrifugation at 14,000 RPM and pellet re-suspended in 100 μl PBS. 10 μl of this bacterial suspension was mixed with 100 μl of 10^12 phages in ml PBS, and then incubated for 1 hr. […] Growth was recorded after dilution into the TSB medium by recording the optical density (OD) at 600 nm.

Series [1] can be described thus: Solubilization of FITC by hygromycin. The series is classed as physicochemical. The source says: For conjugating a hydrophobic cargo, the drug, activated for amine conjugation (in the following experiments, NHS and isothiocynate chemistries were used) was initially reacted in an aqueous solution (NaHCO3 0.1 M pH=8.5) of an aminoglycoside at a concentration lower than the number of available amine groups (to leave one amine available for the subsequent conjugation to the carrier). The reaction was stirred gently for overnight at room temperature. Then the solution was titrated with HCl and Na-citrate buffer was added to final concentration of 0.1 M (pH=5.5). This solution was brought to a final molar concentration of 0.75 M NaCl and finally the carrier bacteriophages was added followed by immediate addition of EDC at concentration of ×100 molar excess over the target carboxyl side chains of the targeted drug carrier. This reaction was stirred gently for 1-2 hours at room temperature, followed by exhaustive dialysis against PBS/0.3 M NaCl. This process is illustrated in FIG. 13.
EDC mediated conjugation of aminoglycosides was first accomplished by using hygromycin as a model linker. hygromycin contains only two primary amines, one for drug conjugation and the other for conjugation to a carrier. Hygromycin was initially conjugated to FITC as described above.

The next series relates to susceptible bacteria. The series can be described thus: Growth inhibition of susceptible bacteria by the chloramphenicol-prodrug. The series is classed as cell-based. As to conditions: concentrations up to ×100 of the free chloramphenicol IC50.
Series [2] can be described thus: Stability of the CAM-linker adduct without serum (pH, PBS), HPLC. The series is classed as physicochemical.
Experimental: To test the CAM release rate, a reverse phase HPLC analysis was done based on the fact that elution time of free CAM is about 9 min while the CAM-linker adduct is eluted about 16 min after sample injection into a reverse phase C18 column. This was done as follows: reverse phase HPLC was used to measure the chloramphenicol release rate following the incubation of chloramphenicol-prodrug in 10% or in 99% horse serum, or without serum, all in PBS. A reverse phase C-18 column was used on a LabChrom L7400 MERCK HITACHI machine with acetonitrile:water (30:70) in the mobile phase at 1 ml/min flow rate. Under these conditions, free chloramphenicol is eluted 9 min after sample loading while the intact chloramphenicol-prodrug is eluted 16 min after sample loading. The % of released chloramphenicol was calculated by dividing the area of the 9 min peak by the total peak area of all relevant peaks and multiplying by 100.
For a further series, the system named is serum esterases. Kind of series: Chloramphenicol release from its linker in horse serum, reverse phase HPLC.

Experimental for serum esterases: CAM release rate from its linker in 99% horse serum. (A) Reverse phase HPLC was used to measure the breakdown rate following the incubation for the indicated time periods in 99% horse serum at 37° C. Free chloramphenicol (marked by black arrows) is eluted 9 min after sample loading while intact chloramphenicol-linker adduct (marked by gray arrows) is eluted 16 min after sample loading. (B) release rate of chloramphenicol from its linker in 10% horse serum (gray bars) or without serum (in PBS, black bars) was evaluated by HPLC as in A, the % released chloramphenicol was calculated by dividing the area of the 9 min peak by the total peak area of all relevant peaks.
To test the CAM release rate, a reverse phase HPLC analysis was done based on the fact that elution time of free CAM is about 9 min while the CAM-linker adduct is eluted about 16 min after sample injection into a reverse phase C18 column. This was done as follows: reverse phase HPLC was used to measure the chloramphenicol release rate following the incubation of chloramphenicol-prodrug in 10% or in 99% horse serum, or without serum, all in PBS. […] The % of released chloramphenicol was calculated by dividing the area of the 9 min peak by the total peak area of all relevant peaks and multiplying by 100.

Regarding `O=C(N[C@H](CO)[C@H](O)c1ccc([N+](=O)[O-])cc1)C(Cl)Cl` [chloramphenicol], in the series with Staphylococcus aureus, the “growth of the SA bacteria (OD 600 nm)” value is on record as “did not retard”.
As to `O=C1OC2(c3ccc(O)cc3Oc3cc(O)ccc32)c2ccc(N=C=S)cc21` [FITC], the “solubility in aqueous buffer” value in series [1] (FITC stock solution (38.9 mg/ml in DMSO) added to equal volume of buffer without aminoglycosides) is “immediate formation of precipitate”; in series [1] (conjugated to hygromycin, molar ratio 10 hygromycin:1 FITC), “immediate solubilization”.
As for `O=C(CCCC(=O)ON1C(=O)CCC1=O)OC[C@@H](NC(=O)C(Cl)Cl)[C@H](O)c1ccc([N+](=O)[O-])cc1` [chloramphenicol-prodrug], in the series on susceptible bacteria, the “inhibition of the growth of susceptible bacteria” value is listed as “did not inhibit the growth”. Besides, the “spontaneous hydrolysis rate of the ester bond” value in series [2] (PBS alone, entire 48 h period) is on record as “less than 5%”. Also, the “stability of CAM-linker adduct” value in series [2] (pH values between 6-8) is listed as “stable”. Also, in the series on serum esterases (10% horse serum, monitored over 48 hours, compared with 99% serum after correcting for concentration), the release rate kinetics result is “same linear kinetics”. In the series on serum esterases (1 hr incubation in 99% horse serum at 37° C., linear kinetics), the “CAM released from the linker” value was “about 15%”.

The values are drawn from patent US7985573B2, “Targeted drug-carrying bacteriophages” (priority 2005, dated 2011).
